Experimental data: publication PMC12649353, “Bioavailability of Thymol Incorporated into Gastro-Resistant Self-Emulsifying Pellets in Rabbits” (Animals : an Open Access Journal from MDPI, 2025)
“And” between values parts separate entries of the source, which are not always exact repeats. Identical values can stand only once. Like-named read-outs stand apart in the source and are kept apart here.

What was measured:
[1] = Thymol stability in feed (HPLC); assay type: physicochemical; conditions: enteric SES pellets in feed
Experimental: Thymol evaporation in feed was analysed every week during thymol application using high-performance liquid chromatography (HPLC) according to the modified method of Oceľová [10] and Pisarčíková et al.. Samples were analysed in triplicate. Briefly, 2 mL of methanol was added to a glass tube containing 0.2 g of milled feed, and thymol was extracted in an ultrasonic bath. The methanolic extract was then analysed using the HPLC method with an Ultimate 3000 HPLC-system liquid chromatograph (Dionex, Sunnyvale, CA, USA). The chromatographic analyses were evaluated using Chromeleon® Software Version 6.80 SR10 Build 2906 (Thermo Fisher Scientific, Waltham, MA, USA).

[2] = Thymol in plasma, tissues, large intestinal content and faeces (SPME GC/MS)
Experimental: A total of 48 rabbits of both sexes (an equal male-to-female ratio per treatment) at five weeks of age were randomly divided into two dietary treatment groups (24 rabbits in each); a control group (CG) fed a standard diet to which enteric pellets without thymol were added and an experimental group (EG) fed a standard diet into which enteric pellets with thymol (250 mg/kg) were incorporated. Plasma and tissue samples from the control group were used as blank samples to construct calibration curves. The rabbits of meat line M91, maternal albinotic line (cross breed New Zealand White, Bouscat rabbit, Argente Champagnet rabbit) and paternal acromalictic line (crossbreed Nitra’s rabbit, Californian rabbit, Big light silver) were used in this experiment. The animals were fed ad libitum and had free access to drinking water. All the experimental wire-net cages (61 cm × 34 cm × 33 cm) were kept in rooms with automatic temperature and humidity control through a digital thermograph (22 ± 4 °C, 70 ± 5%). A lighting regimen of 16 h light and 8 h dark was applied throughout the experiment. The experiment lasted 28 days. The EG rabbits received feed with thymol pellets for 21 days (56 d of age) and for the next 7 days (63 d of age) received pellets without thymol incorporated into feed.
To determine the thymol content in plasma, blood (1.5 mL) from nine rabbits was collected from the marginal ear vein (vena auricularis) into heparinised Eppendorf tubes, and plasma was obtained after centrifugation at 1180× g for 15 min. The gastrointestinal tract was removed from the body cavity and was divided into the small intestine (duodenum and jejunum), caecum and colon (n = 9). Caecum and colon contents were removed, and the small intestinal lumen was gently washed with a 0.9% NaCl solution. The obtained samples of duodenal wall (DW), jejunal wall (JW) and gut content together with plasma, liver, kidney, muscle (longissimus thoracis et lumborum, LTL) and spleen tissue, fat, and faeces were immediately frozen in liquid nitrogen and stored at −70 °C until analysed. All samples were collected on both experimental days (56 or 63 d of age).
Thymol was determined using solid-phase microextraction (SPME) coupled with gas chromatography/mass spectrometry (GC/MS). The analytical system comprised an Agilent 7890A gas chromatograph (Agilent Technologies, Wilmington, DE, USA) interfaced with an Agilent 5975C Mass Selective Detector (VL MSD with Triple-Axis Detector), Agilent Technologies, Wilmington, DE, USA). Chromatographic separation was achieved on an HP-5MS capillary column (Agilent 19091S-433) with dimensions of 30 m in length, 0.250 mm inner diameter and 0.25 μm film thickness. Helium served as the carrier gas under strictly controlled flow (an initial flow rate of 2.77 mL/min and a post-run flow of 1.3 mL/min) and inlet pressure (approximately 23.27 psi). Sample preparation was carried out using solid-phase microextraction (SPME), a solvent-free and efficient extraction technique that utilises the adsorption of analytes onto a polymer-coated fibre. For this purpose, a 65 μm polydimethylsiloxane/divinylbenzene (PDMS/DVB) StableFlex fibre assembly (23Ga, Supelco 57293-U, Sigma-Aldrich, St. Louis, MO, USA) was employed in combination with a PAL autosampler (CTC Analytics, Zwingen, Switzerland). Due to fibre wear, the SPME fibre was replaced after every 40 to 60 samples to ensure consistent extraction performance.
For determination of the total content of thymol plasma and homogenized tissue samples were enzymatically hydrolysed with β-glucuronidase from Helix pomatia (Sigma-Aldrich, St. Louis, MO, USA) at 37 °C and pH 5 for 30 min to cleave thymol conjugates. Following hydrolysis, samples were salted out with sodium chloride (1.00 g), acidified with phosphoric acid (85%) and spiked with an o-cresol internal standard. All reagent concentrations and incubation conditions were applied as described in the previous study by Oceľová et al..

[3] = Growth performance of broiler rabbits fed thymol pellets; assay type: in vivo; conditions: for live weight / average weight gain per rabbit / conversion ratio: EG
Experimental: The experiment lasted 28 days.
Body weight (BW) and feed intake (FI) were recorded individually once a week. The average daily FI, average daily weight gain (WG) and feed conversion ratio (FCR) were calculated at the end of the period (at 56 d of age and 63 d of age).

[4] = cited from earlier work
[5] = parameters: method as in earlier work; conditions: weak acid; cited from earlier work
[6] = thymol 250 mg/kg feed, 56 d of age
[7] = powder form, after thymol withdrawal
[8] = same concentration of thymol, powder non-pelleted form

SMILES: Cc1ccc(C(C)C)c(O)c1 [thymol, Thymol]
- concentration of thymol in feed ([1]; 0 d of thymol application): 246.1 ± 5.8 µg/g DM
- concentration of thymol in feed ([1]; 7 d of thymol application): 197.8 ± 8.3 µg/g DM
- concentration of thymol in feed ([1]; 14 d of thymol application): 221.9 ± 5.1 µg/g DM
- thymol in muscle ([2]; after thymol withdrawal (7 d)): below LOQ
- thymol in plasma ([2]; after thymol withdrawal (7 d)): below LOQ
- thymol in spleen ([2]; after thymol withdrawal (7 d)): below LOQ
- Spearman correlation (rs) of thymol concentration, DW and kidney ([2]; both, rabbit, in vivo): 0.9833
- Spearman correlation (rs) of thymol concentration, DW and muscle ([2]; both, rabbit, in vivo): 0.8167
- Spearman correlation (rs) of thymol concentration, JW and muscle ([2]; both, rabbit, in vivo): 0.8500
- Spearman correlation (rs) of thymol concentration, plasma and kidney ([2]; both, rabbit, in vivo): 0.9167
- Spearman correlation (rs) of thymol concentration, plasma and muscle ([2]; both, rabbit, in vivo): 0.8667
- thymol concentration in DW, times higher than in JW ([2]; both, rabbit, in vivo): 1.1 times
- thymol concentration in DW, times higher than in caecum ([2]; both, rabbit, in vivo): 1.9 times
- thymol concentration in DW, times higher than in colon ([2]; both, rabbit, in vivo): 1.3 times
- concentration at 21 d ([2]; both, rabbit, in vivo, 250 mg/kg): 213 ng/mL and 753 ng/g
- Spearman correlation (rs) of thymol concentration, plasma and DW ([2]; both, rabbit, in vivo, 21 d): 0.9333
- thymol concentration in DW, times higher than in JW ([2]; both, rabbit, in vivo, 21 d): 1.4 times
- thymol concentration in DW, times higher than in caecum ([2]; both, rabbit, in vivo, 21 d): 1.7 times
- thymol concentration in DW, times higher than in colon ([2]; both, rabbit, in vivo, 21 d): 1.3 times
- thymol in all tissues (plasma, liver, kidney, spleen, fat, muscle) and entire intestinal tract ([2]; rabbit, in vivo): above LOQ
- live weight ([3]; 63 d of age (7 d after thymol withdrawal)): 2525 ± 63.2 g
- average weight gain per rabbit ([3]; 63 d of age (after withdrawal)): 40.24 ± 2.94 g/day
- conversion ratio ([3]; 63 d of age (after withdrawal)): 4.24 ± 0.29
- average weight gain per rabbit [3, 6]: 36.25 ± 1.48 g/day
- conversion ratio [3, 6]: 4.44 ± 0.25
- live weight ([3]; thymol 250 mg/kg feed, 56 d of age (21 d with thymol)): 2497 ± 46.9 g
- growth performance ([3]; thymol addition 250 mg/kg feed vs control): not influenced
- thymol in all intestinal segments and organs [4, 7]: below the detection limit
- thymol in spleen [4, 7]: not detected
- thymol in muscle and fat tissues ([4]; powder form, during application): below the detection limit
- thymol concentration in DW, times lower than in caecum [4, 8]: 3.3 times
- thymol concentration in DW, times lower than in colon [4, 8]: 2.5 times
- dissociation constant pKA [5]: 10.62
